Source: ChEMBL document CHEMBL1201862, “PubChem BioAssay data set” (2004)
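Following 48 hours of exposure in 96-well plates, responses at five concentrations were used to interpolate endpoints linearly. GI50 is the concentration that inhibits growth by half.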 Calls of active or inactive are those of the source. No stated cut-off is given here; in the data, active = GI50 up to about 1.1 µM and inactive = higher.

Assays:
Assay in all cases: inhibition of tumour cell growth, NCI panel, 48 h
[1] = system: RXF 393
[2] = system: K562
[3] = system: CCRF-CEM
[4] = system: ACHN
[5] = system: CAKI-1
[6] = system: LOX IMVI
[7] = system: HCT-116
[8] = system: MCF7
[9] = system: SK-MEL-2
[10] = system: Malme-3M
[11] = system: HCT-15
[12] = system: MDA-N
[13] = system: UACC-257
[14] = system: UACC-62
[15] = system: T47D
[16] = system: OVCAR-3
[17] = system: SF-295
[18] = system: OVCAR-5
[19] = system: SF-268
[20] = system: UO-31

| Compound | GI50 [1] | GI50 [2] | GI50 [3] | GI50 [4] | GI50 [5] | GI50 [6] | GI50 [7] | GI50 [8] | GI50 [9] | GI50 [10] | GI50 [11] [µM] | GI50 [12] | GI50 [13] | GI50 [14] | GI50 [15] | GI50 [16] | GI50 [17] | GI50 [18] | GI50 [19] | GI50 [20] |
| --- | --- | --- | --- | --- | --- | --- | --- | --- | --- | --- | --- | --- | --- | --- | --- | --- | --- | --- | --- | --- |
| CCOC(=O)c1cc(Br)c(-c2onc(C)c2Br)n1C | 10.2 µM (inactive) | 30.5 µM (inactive) | 30.7 µM (inactive) | 41.6 µM (inactive) | 12.8 µM (inactive) | 34 µM (inactive) | 18.9 µM (inactive) | 23.6 µM (inactive) | 36.6 µM (inactive) | 52.8 µM (inactive) | 37.6 | 43 µM (inactive) | 44.7 µM (inactive) | 27.9 µM (inactive) | 15.6 µM (inactive) | 31.6 µM (inactive) | 23.9 µM (inactive) | 19.4 µM (inactive) | 75 µM (inactive) | 45.9 µM (inactive) |
| COC(=O)c1ccccc1NC(=O)/C(=N\NC(C)(C)C)C(C#N)c1nc(-c2ccc([N+](=O)[O-])cc2)cs1 (stereo not given) | > 100 µM (inactive) | > 100 µM (inactive) | > 100 µM (inactive) | > 100 µM (inactive) | > 100 µM (inactive) | > 100 µM (inactive) | > 100 µM (inactive) | > 100 µM (inactive) | > 100 µM (inactive) | > 100 µM (inactive) | > 100 | > 100 µM (inactive) | > 100 µM (inactive) | > 100 µM (inactive) | > 100 µM (inactive) | > 100 µM (inactive) | > 100 µM (inactive) | > 100 µM (inactive) | > 100 µM (inactive) | > 100 µM (inactive) |
| CCN(CC)CCNc1c2ccccc2nc2cccc([N+](=O)[O-])c12 | 0.0176 µM (active) | 0.0157 µM (active) | 0.0462 µM (active) | 0.00665 µM (active) | 0.0158 µM (active) | 0.0225 µM (active) | 0.00676 µM (active) | 0.00135 µM (active) | 0.0133 µM (active) | 0.00953 µM (active) | 0.00701 | 0.00179 µM (active) | 0.0255 µM (active) | 0.0143 µM (active) | 0.0101 µM (active) | 0.0123 µM (active) | 0.00912 µM (active) | 0.0101 µM (active) | 0.012 µM (active) | 0.0198 µM (active) |
